# From patent US11873298B2, “Compounds and uses thereof” (JANSSEN PHARMACEUTICA NV, priority 2017, dated 2024)
# Key:
# SCD5 = biological target: T1, SCD5 (Homo sapiens, UniProt Q86SK9); test: Growth inhibition of humanized yeast strain expressing SCD5 as sole desaturase; format: cell-based
# T1 construct: host or cells: S. cerevisiae ole1Δ strain (W303 pdr1Δ pdr3Δ background), plasmid pRS316 with TDH3 promoter and CYC1 terminator
# T1 sequence (Q86SK9 1-330): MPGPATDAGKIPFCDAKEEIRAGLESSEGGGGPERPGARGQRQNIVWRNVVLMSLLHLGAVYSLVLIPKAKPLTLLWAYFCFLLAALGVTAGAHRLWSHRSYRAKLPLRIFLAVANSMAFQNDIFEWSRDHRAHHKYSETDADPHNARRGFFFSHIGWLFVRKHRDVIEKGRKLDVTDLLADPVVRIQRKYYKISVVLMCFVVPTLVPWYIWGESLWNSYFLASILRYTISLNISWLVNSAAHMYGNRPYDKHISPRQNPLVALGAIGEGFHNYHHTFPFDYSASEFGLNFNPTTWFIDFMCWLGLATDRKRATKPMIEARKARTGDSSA
# Outline: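 Measured by optical density at 600 nm, growth of desaturase-dependent yeast (OLE1 deleted; human SCD1, human SCD5 or yeast Ole1 supplied from plasmid) was scored after 24 h (Ole1) or 40 h (SCD1, SCD5) at 30° C. in galactose media lacking uracil with DMSO-delivered compound.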
# SCD1 = biological target: T2, SCD1 (Homo sapiens, UniProt O00767); test: Growth inhibition of humanized yeast strain expressing SCD1 as sole desaturase; format: cell-based
# T2 construct: host or cells: S. cerevisiae ole1Δ strain (W303 pdr1Δ pdr3Δ background), plasmid pRS316 with TDH3 promoter and CYC1 terminator
# T2 sequence (O00767 1-359): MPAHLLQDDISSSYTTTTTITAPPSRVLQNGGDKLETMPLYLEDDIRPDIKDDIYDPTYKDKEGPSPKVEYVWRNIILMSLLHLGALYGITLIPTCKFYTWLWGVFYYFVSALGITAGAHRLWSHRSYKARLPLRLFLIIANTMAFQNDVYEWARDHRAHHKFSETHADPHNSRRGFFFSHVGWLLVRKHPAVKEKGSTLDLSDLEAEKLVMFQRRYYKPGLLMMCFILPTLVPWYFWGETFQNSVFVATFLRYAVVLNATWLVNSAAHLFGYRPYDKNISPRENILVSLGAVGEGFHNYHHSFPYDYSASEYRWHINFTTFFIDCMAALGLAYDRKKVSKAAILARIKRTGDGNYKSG
# Description: Strain oleΔ (yeast ole1 deletion mutant) was constructed by deleting OLE1 with NAT-MX6 in BY4741, amplifying the deletion cassette from the genomic DNA of the resulting strain with primers flanking the ORF by 1000 bp upstream and downstream, transforming the resulting deletion cassette into W303 pdr1Δ pdr3Δ, and plating transformants on YPD media containing G418 (200 μg/mL) and nourseothricin ([…]) with 0.01% TWEEN®-20 and 0.5 mM oleic and palmitoleic acids.
# The coding sequence of yeast OLE1 was also cloned into this plasmid). These clones were then transformed into the ole1Δ strain and plated on CSM-Ura media (CSM lacking uracil) with 2% glucose (w/v) and independent colonies were isolated and amplified.
# All compound profiling experiments were performed using the same basic protocol. Different genetic backgrounds (e.g., gene deletions) or conditions (e.g., addition of oleic and palmitoleic acid) were replaced as indicated below.
# Yeast were cultured using standard techniques in complete synthetic media (CSM) and yeast nitrogen base supplemented with 2% (w/v) carbon source (glucose, raffinose, or galactose) to regulate the expression of the toxic disease protein. An initial starter culture was inoculated in 3 mL CSM-Glucose media and incubated overnight in a 30° C. shaker incubator (225 rpm). Saturated morning cultures were then diluted 1:20 in fresh CSM-Raffinose media and grown for 6 h to an OD600 (optical density) of ˜0.4-0.8 at 30° C. with shaking.
# Compound administration was performed in two separate steps. First, 15 μL of CSM-Galactose (induces expression of toxic protein) was dispensed into clear 384 well assay plates using a MULTIDROP™ Combi reagent dispenser. […] The cultures described above were then diluted to a 2× concentration (0.03 and 0.08 for alpha-synuclein and ApoE, final ODsoo of 0.015 and 0.04) in CSM-Galactose. For wild-type and Ole1/SCD1/SCD5 plasmid-containing strains, the 2× cell density was 0.02. […] For 96-well assays (FIGS. 1A and 1B), compound dilutions in DMSO were generated in 96 well plates and 1 μL was manually pipetted into 96 well clear bottom assay plates.
# For experiments using a plasmid-borne copy of Ole1, SCD1, or SCD5 (FIGS. 3B, 6, and 7), media lacking uracil (SX-Ura, where X is glucose, raffinose, or galactose), was used for all steps of the compound profiling protocol to ensure its maintenance throughout the assay.
# After yeast delivery, assay plates were incubated under humidified conditions at 30° C. for 24 to 40 h. ApoE4 rescue experiments were stopped at 24 h, aSyn experiments at 40 h, Ole1 at 24 h, and SCD1/SCD5 at 40 h. The growth of yeast was monitored by reading the ODsoo of each well using a microplate reader (Perkin Elmer EnVision™).
# [1] = growth inhibition of humanized yeast strain expressing human SCD5
# [2] = growth inhibition of humanized yeast strain expressing human SCD1
# [3] = humanized yeast strain expressing SCD5
# [4] = humanized yeast strain expressing SCD1
Compound,"IC50 (SCD5; humanized yeast strain, 40 h)","IC50 (SCD1; humanized yeast strain, 40 h)",further results
CC(C)n1ncc2ccc(-c3noc(C4CCN(C(=O)c5ncc(Cl)o5)CC4)n3)cc21 [Compound 758],5.27 µM,> 45 µM,–
O=C(c1ccccc1F)N1CCN(c2noc(-c3ccc4cnn(C5COC5)c4c3)n2)CC1 [Compound 725],–,–,IC50 (SCD5; [1]): 0.011 µM; IC50 (SCD1; [2]): 5.99 µM
COC(=O)N1CCN(c2noc(-c3ccc4cnn(C5COC5)c4c3)n2)CC(F)(F)C1 [Compound 1034],0.639 µM,> 45 µM,–
CCC(=O)N1CCC(c2cc(-c3cc4c(cn3)cnn4C(C)C)no2)CC1 [Compound 1089],4.68 µM,> 45 µM,–
CCOC(=O)N1CCC(c2nc(-c3ccc4cnn(C(C)C)c4c3)no2)CC1 [Compound 361],–,–,IC50 (SCD5; [3]): > 45 µM; SCD5 % Max Inhibition (SCD5; [3]): 0.95%; SCD1 % Max Inhibition (SCD1; [4]): 67.22%
CC(C)(C)OC(=O)N1CCC(c2nc(-c3ccc4cn[nH]c4c3)no2)CC1 [Compound 912],1.98 µM,> 45 µM,–
CC(C)(C)OC(=O)N1CCC(c2noc(-c3ccc(=O)n(C4COC4)c3)n2)CC1 [Compound 1113],0.494 µM,> 45 µM,–
O=C(N1CCN(c2noc(-c3ccc4cnn(C5COC5)c4c3)n2)CC1)C1(F)CC1 [Compound 970],0.00196 µM,8.5 µM,–
Cn1ncc2ccc(-c3noc(C4CCN(C(=O)OC(C)(C)C)CC4)n3)cc21 [Compound 359],–,–,IC50 (SCD5; [3]): > 45 µM; SCD5 % Max Inhibition (SCD5; [3]): 0.81%; SCD1 % Max Inhibition (SCD1; [4]): 55.70%
C[C@H]1C[C@H](c2noc(-c3ccc4cnn(C5COC5)c4c3)n2)CCN1C(=O)C1(F)CC1 [Compound 1053],0.00118 µM,> 45 µM,–
O=C(C1CCC1)N1CCN(c2noc(-c3ccc4cnn(C5COC5)c4c3)n2)CC(F)(F)C1 [Compound 1046],0.01 µM,≥ 45 µM,–
CC(N1CCC(c2nc(-c3ccc4cnn(C5COC5)c4c3)no2)CC1)C(F)(F)F (stereo not shown) [Compound 1091],3.62 µM,> 45 µM,–
CC(C)n1ncc2ccc(-c3noc(C4CCN(C(=O)CNC(=O)C5CC5)CC4(F)F)n3)cc21 (stereo not shown) [Compound 579],–,–,IC50 (SCD5; [3]): > 45 µM; IC50 (SCD1; [4]): > 45 µM
O=C(C1CCC1)N1CCC(c2noc(-c3ccc4cnn([C@@H]5CCOC5)c4c3)n2)CC1 [Compound 1093],0.00253 µM,> 45 µM,–
CC(C)n1ncc2ccc(-c3noc(N4CCn5ccnc5C4)n3)cc21 [Compound 804],> 45 µM,> 45 µM,–
COC1(C(=O)N2CCC(C)(c3nc(-c4ccc5cnn(C(C)C)c5c4)no3)CC2)CC1 [Compound 748],2.14 µM,> 45 µM,–
CC(C)(C)OC(=O)N1CCC(c2ccc(-c3ccc4cnn(C5COC5)c4c3)nn2)CC1 [Compound 1030],11 µM,> 45 µM,–
Cc1nn(C)c2cc(-c3noc(C4CN(C(=O)OC(C)(C)C)C4)n3)ccc12 [Compound 365],–,–,IC50 (SCD5; [3]): > 45 µM; SCD5 % Max Inhibition (SCD5; [3]): 23.74%; SCD1 % Max Inhibition (SCD1; [4]): 58.08%
CC(C)(C)OC(=O)N1CCC(c2noc(-c3ccc4cnc(C5COC5)n4c3)n2)CC1 [Compound 909],2.85 µM,> 45 µM,–
CC(C)n1ncc2ccc(-c3nc(N4CCC5(CCO5)CC4)no3)cc21 [Compound 762],5.25 µM,> 45 µM,–
CC(C)(C)OC(=O)N1CCN(c2nc(-c3cccc(C4CCOC4)c3)no2)CC1 (stereo not shown) [Compound 829],2.2 µM,> 45 µM,–
CC(C)n1ncc2ccc(-c3noc(C4CCN(C(=O)C5(C#N)CC5)CC4)n3)cc21 [Compound 688],–,–,IC50 (SCD5; [1]): 1.5 µM; IC50 (SCD1; [2]): > 45 µM

Compound,"IC50 (SCD5; humanized yeast strain, 40 h)","IC50 (SCD1; humanized yeast strain, 40 h)",further results
COC(=O)N1CCC(c2noc(-c3ccn4cnc(C(C)C)c4c3)n2)CC1 [Compound 1045],0.935 µM,≥ 45 µM,–
O=C(CC1CC1)N1CCC(c2noc(-c3ccc4cnn(C5CCOC5)c4c3)n2)CC1 (stereo not shown) [Compound 974],0.01 µM,> 45 µM,–
CC(=O)N1CC(n2ncc3ccc(-c4nc(N5CCNCC5)no4)cc32)C1 [Compound 937],> 45 µM,> 45 µM,–
O=C(c1ncccc1F)N1CCN(c2noc(-c3ccc4cnn(C5COC5)c4c3)n2)CC1 [Compound 972],4.44 µM,> 45 µM,–
O=C(N1CCN(c2nnc(-c3ccc4cnn(C5COC5)c4c3)o2)CC1)C12CC(C1)C2 [Compound 994],> 45 µM,> 45 µM,–
CC(C)n1ncc2ccc(-c3noc(N4C[C@@H]5CN(C(=O)OC(C)(C)C)C[C@H]5C4)n3)cc21 [Compound 513],–,–,IC50 (SCD5; [3]): > 45 µM; IC50 (SCD1; [4]): > 45 µM
COC(=O)N1CCC(c2noc(-c3ccc4cnn([C@H]5CCOC5)c4c3)n2)CC1 [Compound 879],0.01 µM,5.5 µM,–
COC(=O)N1CCN(c2nc(-c3cccc(C4CCOC4)c3)no2)CC1 (stereo not shown) [Compound 837],12.5 µM,> 45 µM,–
CC(C)N1C(=O)Cc2ccc(-c3noc(C4CCN(C(=O)CC5(C)CC5)CC4)n3)cc21 [Compound 626],–,–,IC50 (SCD5; [1]): 2.75 µM; IC50 (SCD1; [2]): > 45 µM
CC(C)C(=O)N1CCC(c2noc(-c3ccnc(-c4cnn(C)c4)c3)n2)CC1 [Compound 1187],> 45 µM,> 45 µM,–
COC(=O)N1CCN(c2noc(-c3ccc4cnn(C5CS(=O)(=O)C5)c4c3)n2)CC1 [Compound 998],4.13 µM,> 45 µM,–
O=C(c1ccccc1Cl)N1CCN(c2noc(-c3ccc4cnn(C5COC5)c4c3)n2)CC1 [Compound 726],–,–,IC50 (SCD5; [1]): 0.01 µM; IC50 (SCD1; [2]): 5.65 µM
CNC(=O)O[C@H]1CC[C@H](c2nc(-c3ccc4c(C)nn(C)c4c3)no2)CC1 [Compound 609],–,–,IC50 (SCD5; [1]): > 45 µM; IC50 (SCD1; [2]): > 45 µM
CC(C)(C)OC(=O)N1CCC(c2noc(-c3ccnc(C4CCOC4)c3)n2)CC1 (stereo not shown) [Compound 999],0.01 µM,> 45 µM,–
CC(C)(C)OC(=O)N1CC2(C1)CN(c1noc(-c3ccc4cnn(C5COC5)c4c3)n1)C2 [Compound 1074],1.96 µM,5.43 µM,–
CC(C)n1ncc2ccc(-c3noc(C4CCCN(C(=O)OC(C)(C)C)C4)n3)cc21 (stereo not shown) [Compound 563],–,–,IC50 (SCD5; [3]): > 45 µM; IC50 (SCD1; [4]): > 45 µM
CC(C)n1ncc2ccc(-c3noc(C4CCN(C(=O)CNC(=O)c5ccc(C#N)cc5)CC4(F)F)n3)cc21 (stereo not shown) [Compound 552],–,–,IC50 (SCD5; [3]): > 45 µM; IC50 (SCD1; [4]): > 45 µM
CC(C)(C)OC(=O)N1CCN(c2noc(-c3ccnc(N4CCOCC4)c3)n2)CC1 [Compound 943],> 45 µM,> 45 µM,–
CC(C)c1ncn2ccc(-c3nc(C4CCN(C(=O)OC(C)(C)C)CC4)no3)cc12 [Compound 1040],0.791 µM,> 45 µM,–
CC(C)n1ncc2ccc(-c3noc(C4CCN(C(=O)N5CCCC5C#N)CC4)n3)cc21 (stereo not shown) [Compound 666],–,–,IC50 (SCD5; [1]): > 45 µM; IC50 (SCD1; [2]): > 45 µM
Cc1nn(C)c2cc(-c3noc(C4CCN(C(=O)CCC(F)(F)F)CC4)n3)ccc12 [Compound 518],–,–,IC50 (SCD5; [3]): 2.95 µM; IC50 (SCD1; [4]): > 45 µM
COC(=O)N1CCC(c2noc(-c3ccc(F)c(N4CCOCC4)c3)n2)CC1 [Compound 1161],0.0363 µM,> 45 µM,–
